One assay concerns the target T1, Human recombinant HDAC1 (Homo sapiens, UniProt Q13547).
T1 construct: purchased Enzo Life Science Co. (named for the kit; assigned to the enzyme from the BML- catalogue prefix) BML-SE456
Briefly: HDAC enzyme activity test, HDAC1. The format is biochemical. Particulars: Table 12; read-out: Inhibition ability (IC50) HDAC1. The method, then:
(§1) Then, 0.3 μg of enzyme and 10 μM of substrate per well were added, reacted at 30° C. for 60 minutes. Thereto, Fluor de Lys® Developer II (BML-KI176) was added and reacted for 30 minutes. […] From the data, the respective IC50 were calculated by GraphPad Prism 4.0 program.

In another assay the target is T2, human recombinant HDAC6 (Homo sapiens, UniProt Q9UBN7).
T2 construct: purchased Calibiochem Co. (so in the source) 382180
T2 sequence (Q9UBN7 1-1215): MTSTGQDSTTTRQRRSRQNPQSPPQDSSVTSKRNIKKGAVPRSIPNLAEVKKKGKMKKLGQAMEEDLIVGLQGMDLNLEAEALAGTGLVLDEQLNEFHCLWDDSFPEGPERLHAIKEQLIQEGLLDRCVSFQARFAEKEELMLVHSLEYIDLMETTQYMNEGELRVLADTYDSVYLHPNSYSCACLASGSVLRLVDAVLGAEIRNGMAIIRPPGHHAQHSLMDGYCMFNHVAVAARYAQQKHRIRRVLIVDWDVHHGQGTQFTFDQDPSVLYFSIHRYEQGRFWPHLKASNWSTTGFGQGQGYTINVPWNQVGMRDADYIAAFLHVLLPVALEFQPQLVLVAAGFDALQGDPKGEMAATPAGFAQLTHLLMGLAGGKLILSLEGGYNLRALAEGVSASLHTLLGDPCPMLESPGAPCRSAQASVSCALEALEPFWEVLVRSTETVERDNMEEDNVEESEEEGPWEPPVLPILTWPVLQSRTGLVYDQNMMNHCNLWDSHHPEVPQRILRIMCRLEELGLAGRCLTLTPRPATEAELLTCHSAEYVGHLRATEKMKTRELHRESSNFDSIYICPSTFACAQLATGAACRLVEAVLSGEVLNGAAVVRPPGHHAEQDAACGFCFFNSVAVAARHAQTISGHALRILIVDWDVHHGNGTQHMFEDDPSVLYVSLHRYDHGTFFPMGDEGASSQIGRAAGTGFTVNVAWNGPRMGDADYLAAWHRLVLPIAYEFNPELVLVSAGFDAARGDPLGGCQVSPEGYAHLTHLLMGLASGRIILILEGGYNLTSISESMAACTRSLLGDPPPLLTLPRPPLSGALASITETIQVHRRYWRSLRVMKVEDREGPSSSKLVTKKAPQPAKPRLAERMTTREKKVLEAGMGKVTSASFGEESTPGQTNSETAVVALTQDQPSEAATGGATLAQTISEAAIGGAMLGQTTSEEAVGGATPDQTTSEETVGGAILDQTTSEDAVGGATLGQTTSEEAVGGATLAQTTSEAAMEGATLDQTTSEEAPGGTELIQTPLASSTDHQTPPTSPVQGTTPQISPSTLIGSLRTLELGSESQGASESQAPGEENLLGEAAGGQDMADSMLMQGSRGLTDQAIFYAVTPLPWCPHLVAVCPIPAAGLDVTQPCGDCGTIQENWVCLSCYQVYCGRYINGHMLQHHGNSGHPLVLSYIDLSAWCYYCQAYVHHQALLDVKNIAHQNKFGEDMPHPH
Briefly: HDAC enzyme activity test, HDAC6. Format: biochemical. Particulars: Table 12; for Selectivity for HDAC6, HD1/HD6: ratio HDAC1 IC50 / HDAC6 IC50; for IC50: read-out: Inhibition ability (IC50) HDAC6. How it is done:
as §1

SMILES strings stand for the structures.

T1 sequence (Q13547 whole entry): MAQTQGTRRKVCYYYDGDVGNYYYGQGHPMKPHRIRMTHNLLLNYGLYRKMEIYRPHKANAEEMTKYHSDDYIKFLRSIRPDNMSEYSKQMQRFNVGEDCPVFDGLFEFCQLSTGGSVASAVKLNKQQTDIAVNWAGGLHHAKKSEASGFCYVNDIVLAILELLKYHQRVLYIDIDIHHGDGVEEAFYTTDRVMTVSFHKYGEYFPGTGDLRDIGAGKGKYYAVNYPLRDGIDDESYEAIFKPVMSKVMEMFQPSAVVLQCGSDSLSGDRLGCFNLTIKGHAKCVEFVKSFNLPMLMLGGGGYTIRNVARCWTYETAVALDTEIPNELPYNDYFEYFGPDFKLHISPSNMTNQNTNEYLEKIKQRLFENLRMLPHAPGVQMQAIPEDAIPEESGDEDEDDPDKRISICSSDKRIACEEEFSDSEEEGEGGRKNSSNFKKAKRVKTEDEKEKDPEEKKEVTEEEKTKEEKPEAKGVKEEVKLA

The IC50 is the concentration that inhibits the measured activity by half. `CC1(C)CC(=O)c2c(n(CCCCCC(=O)NO)c3ccccc23)C1` [Compound 18, 6-(2,2-dimethyl-4-oxo-1,2,3,4-tetrahydrocarbazol-9-yl)-N-hydroxyhexanamide]: the IC50 on Human recombinant HDAC1 is 1320 nM; on human recombinant HDAC6, 71.4 nM. Besides, the “Selectivity for HDAC6, HD1/HD6” value at human recombinant HDAC6 amounted to 18.5.
The corresponding values for `CC1(C)CC(=O)c2c(n(CCCCCCC(=O)NO)c3ccccc23)C1` [Compound 20, 7-(2,2-dimethyl-4-oxo-1,2,3,4-tetrahydrocarbazol-9-yl)-N-hydroxyheptanamide] are 125 nM, 7.44 nM and 16.8.
For `CC1(C)CC(=O)c2c(n(CCCCCC(=O)NO)c3ccc(Br)cc23)C1` [Compound 40, 6-(6-bromo-2,2-dimethyl-4-oxo-1,2,3,4-tetrahydrocarbazol-9-yl)-N-hydroxyhexanamide], the concentration for half-maximal inhibition (IC50) on Human recombinant HDAC1 was found to be 8880 nM. In addition, on human recombinant HDAC6, the “Selectivity for HDAC6, HD1/HD6” value worked out at 75.5 and the 50% inhibitory concentration (IC50) is 117 nM.
For the molecule `CC1(C)CC(=O)c2c(n(CCCCCC(=O)NO)c3cc(Br)ccc23)C1` [Compound 41, 6-(7-bromo-2,2-dimethyl-4-oxo-1,2,3,4-tetrahydrocarbazol-9-yl)-N-hydroxyhexanamide], the 50% inhibitory concentration (IC50) at Human recombinant HDAC1 was found to be 98.8 nM. In addition, at human recombinant HDAC6, the “Selectivity for HDAC6, HD1/HD6” value stood at 50.7 and the IC50 was found to be 1.95 nM.
The matching figures for `CC1(C)CC(=O)c2c(n(Cc3ccc(C(=O)NO)cc3)c3ccc(Br)cc23)C1` [Compound 45, 4-((6-bromo-2,2-dimethyl-4-oxo-1,2,3,4-tetrahydrocarbazol-9-yl)methyl)-N-hydroxybenzamide]: 5480 nM, 42.1 and 130 nM.
The matching figures for `CC1(C)CC(=O)c2c(n(CCCCCC(=O)NO)c3c(Br)cccc23)C1` [Compound 46, 6-(1-bromo-7,7-dimethyl-5-oxo-5,6,7,8-tetrahydrocarbazol-9-yl)-N-hydroxyhexanamide]: 2070 nM, 8.2 and 253 nM.
The corresponding values for `CC1(C)CC(=O)c2c(n(CCCCCC(=O)NO)c3c(Cl)cc(Cl)cc23)C1` [Compound 47, 6-(1,3-dichloro-7,7-dimethyl-5-oxo-5,6,7,8-tetrahydrocarbazol-9-yl)-N-hydroxyhexanamide] are 2910 nM, 6.9 and 421 nM.
Regarding `CC1(C)CC(=O)c2c(n(CCCCCC(=O)NO)c3c(Cl)ccc(Cl)c23)C1` [Compound 48, 6-(1,4-dichloro-7,7-dimethyl-5-oxo-5,6,7,8-tetrahydrocarbazol-9-yl)-N-hydroxyhexanamide], the results for the IC50 at Human recombinant HDAC1 and at human recombinant HDAC6 were 4370 nM and 145 nM, respectively. For the same molecule, the “Selectivity for HDAC6, HD1/HD6” value on human recombinant HDAC6 is 30.1.
The corresponding values for `CC1(C)CC(=O)c2c(n(Cc3ccc(C(=O)NO)cc3)c3c(Cl)ccc(Cl)c23)C1` [Compound 49, 4-((1,4-dichloro-7,7-dimethyl-5-oxo-5,6,7,8-tetrahydrocarbazol-9-yl)methyl)-N-hydroxybenzamide] are 13500 nM, 93 nM and 144.8.
The matching figures for `CC1(C)CC(=O)c2c(n(CCCCCCC(=O)NO)c3ccc(Br)cc23)C1` [Compound 50, 7-(6-bromo-2,2-dimethyl-4-oxo-1,2,3,4-tetrahydrocarbazol-9-yl)-N-hydroxyheptanamide]: 158 nM, 8.95 nM and 17.7.
The corresponding values for `CC1(C)CC(=O)c2c(n(CCCCCCC(=O)NO)c3c(Cl)cc(Cl)cc23)C1` [Compound 51, 7-(1,3-dichloro-7,7-dimethyl-5-oxo-5,6,7,8-tetrahydrocarbazol-9-yl)-N-hydroxyheptanamide] are 1330 nM, 106 nM and 12.5.
For `CC1(C)CC(=O)c2c(n(CCCCCCC(=O)NO)c3c(Br)cccc23)C1` [Compound 52, 7-(1-bromo-7,7-dimethyl-5-oxo-5,6,7,8-tetrahydrocarbazol-9-yl)-N-hydroxyheptanamide], the IC50 at Human recombinant HDAC1 came out at 662 nM. Further, on human recombinant HDAC6, the “Selectivity for HDAC6, HD1/HD6” value was found to be 27.7 and the concentration for half-maximal inhibition (IC50) turned out to be 23.9 nM.
The corresponding values for `CC1(C)CC(=O)c2c(n(Cc3ccc(C(=O)NO)cc3)c3cccc(Br)c23)C1` [Compound 53, 4-((5-bromo-2,2-dimethyl-4-oxo-1,2,3,4-tetrahydrocarbazol-9-yl)methyl)-N-hydroxybenzamide] are 5760 nM, 88.7 and 64.9 nM.
The corresponding values for `CC1(C)CC(=O)c2c(n(Cc3ccc(C(=O)NO)cc3)c3cc(Br)ccc23)C1` [Compound 54, 4-((7-bromo-2,2-dimethyl-4-oxo-1,2,3,4-tetrahydrocarbazol-9-yl)methyl)-N-hydroxybenzamide] are 1470 nM, 24.7 and 59.5 nM.
The matching figures for `CC1(C)CC(=O)c2c(n(CCCCCCC(=O)NO)c3ccc(F)cc23)C1` [Compound 56, 7-(6-fluoro-2,2-dimethyl-4-oxo-1,2,3,4-tetrahydrocarbazol-9-yl)-N-hydroxyheptanamide]: 242 nM, 58.5 and 4.13 nM.
Take `CC1(C)CC(=O)c2c(n(Cc3ccc(C(=O)NO)cc3)c3ccc(F)cc23)C1` [Compound 57, 4-((6-fluoro-2,2-dimethyl-4-oxo-1,2,3,4-tetrahydrocarbazol-9-yl)methyl)-N-hydroxybenzamide]: the IC50 at Human recombinant HDAC1 amounted to 3770 nM; at human recombinant HDAC6, 22.4 nM. For the same molecule, the “Selectivity for HDAC6, HD1/HD6” value on human recombinant HDAC6 is listed as 168.3.
The corresponding values for `CC1(C)CC(=O)C2c3c(F)cccc3N(CCCCCC(=O)NO)C2C1` (stereo not drawn) [Compound 60, 6-(5-fluoro-2,2-dimethyl-4-oxo-2,3,4,4a-tetrahydro-1H-carbazol-9(9aH)-yl)-N-hydroxyhexanamide] are 9180 nM, 72 nM and 127.4.
In the case of `CC1(C)CC(=O)c2c(n(Cc3ccc(C(=O)NO)cc3)c3cc(F)c(F)cc23)C1` [Compound 71, 4-((6,7-difluoro-2,2-dimethyl-4-oxo-1,2,3,4-tetrahydrocarbazol-9-yl)methyl)-N-hydroxybenzamide], the concentration for half-maximal inhibition (IC50) on Human recombinant HDAC1 amounted to 4990 nM. Further, at human recombinant HDAC6, the “Selectivity for HDAC6, HD1/HD6” value is 37 and the 50% inhibitory concentration (IC50) is 134 nM.
On to `CC1(C)CC(=O)c2c(n(CCCCCC(=O)NO)c3cc(F)c(F)cc23)C1` [Compound 72, 6-(6,7-difluoro-2,2-dimethyl-4-oxo-1,2,3,4-tetrahydrocarbazol-9-yl)-N-hydroxyhexanamide], for which the half-maximal inhibitory concentration (IC50) on Human recombinant HDAC1 stood at 6060 nM. In addition, on human recombinant HDAC6, the “Selectivity for HDAC6, HD1/HD6” value amounted to 28.2 and the concentration for half-maximal inhibition (IC50) came to 215 nM.
The matching figures for `CC1(C)CC(=O)c2c(n(Cc3ccc(C(=O)NO)cc3)c3ccc(F)c(F)c23)C1` [Compound 73, 4-((5,6-difluoro-2,2-dimethyl-4-oxo-1,2,3,4-tetrahydrocarbazol-9-yl)methyl)-N-hydroxybenzamide]: 3910 nM, 52.1 and 75.1 nM.
The corresponding values for `CC1(C)CC(=O)c2c(n(CCCCCC(=O)NO)c3ccc(F)c(F)c23)C1` [Compound 74, 6-(5,6-difluoro-2,2-dimethyl-4-oxo-1,2,3,4-tetrahydrocarbazol-9-yl)-N-hydroxyhexanamide] are 4720 nM, 33.3 and 141 nM.
With `CC1(C)CC(=O)c2c(n(CCCCCC(=O)NO)c3cc(F)ccc23)C1` [Compound 76, 6-(7-fluoro-2,2-dimethyl-4-oxo-1,2,3,4-tetrahydrocarbazol-9-yl)-N-hydroxyhexanamide], the results for the IC50 at Human recombinant HDAC1 and on human recombinant HDAC6 were 5230 nM and 171 nM, respectively. The “Selectivity for HDAC6, HD1/HD6” value at human recombinant HDAC6 is 30.7.

Source of the values: patent publication US20140315889A1, “HYDROXAMATE DERIVATIVES FOR HDAC INHIBITOR, AND THE PHARMACEUTICAL COMPOSITION COMPRISING THEREOF” (CHONG KUN DANG PHARMACEUTICAL CORP., priority 2011, published 2014).
